Test results from US20110098184A1, “Competitve differntial screeing” (priority 2004, published 2011).
Bridge positions count the residues as written; N and C are the ends. Peptide text beside a SMILES is read from it.

Molecular target: human stratum cornium chymotrypsin (hSCC) (Homo sapiens, UniProt P49862)
Experiment: Mass spectrometric screening of a protein library against immobilized hSCC in the presence of competitor Ecotin
Type: binding
Settings: library 10 nM per member, competitor Ecotin at 1 nM, 100 nM, 4 hrs incubation, biotinylated hSCC on streptavidin beads
Text: In this Example, mass spectrometric screening experiments are described. FIGS. 10-13 provide data and calculations obtained during these experiments. Inhibitors of human stratum cornium chymotrypsin (hSCC) were screened from a protein library made of BBI-loop-BLA (See e.g., U.S. patent application Ser. Nos. 10/984,270 and 10/984,410; and PCT Appln. Nos. US04/36976, US04/36979; and US04/36980), all of which are incorporated by reference herein). The protein library consisted of a protein backbone in which three non-consecutive positions were randomized (cysteine constrained) at the N-terminus of the protein. HSCC (screening target) (Swissprot, accession number P49862) was biotinylated and immobilized on streptavidin beads (MagnaBind Beads; Pierce).
HSCC was incubated with a protein library at 10 nM per library member in the presence of a competitor (Ecotin; Sigma) added at 1 nM, 10 nM, and 100 nM concentrations. Following incubation (4 hrs), the beads were washed with incubation buffer to remove nonspecific binders and specific binders were eluted with an elution solution.
The recovered binders were concentrated (vacuum concentration), resuspended in a digestion buffer, reduced, alkylated, and digested with proteolytic enzyme (Lys-c; Roche). The resulting protein digests were analyzed by capillary LC-ESI-MS/MS. […]

human stratum cornium chymotrypsin (hSCC), sequence (P49862 30-253): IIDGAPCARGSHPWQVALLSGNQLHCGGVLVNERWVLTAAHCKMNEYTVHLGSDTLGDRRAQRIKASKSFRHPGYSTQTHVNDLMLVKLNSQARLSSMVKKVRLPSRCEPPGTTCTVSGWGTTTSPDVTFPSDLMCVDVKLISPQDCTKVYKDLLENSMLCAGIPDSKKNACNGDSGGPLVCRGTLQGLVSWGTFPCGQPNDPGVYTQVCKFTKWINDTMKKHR

C[C@@H](O)[C@@H]1NC(=O)[C@@H](NC(=O)[C@@H]2CCCN2)CSSC[C@@H](C(=O)N[C@@H](Cc2ccc(O)cc2)C(=O)NCC(=O)NCC(=O)NCC(=O)N[C@@H](CCCCN)C(=O)O)NC(=O)[C@H](CCC(N)=O)NC(=O)[C@@H]2CCCN2C(=O)[C@@H]2CCCN2C(=O)[C@H](Cc2ccc(O)cc2)NC(=O)[C@H](CO)NC(=O)[C@H](Cc2ccccc2)NC1=O [pj02] (H-PCTFSYPPQCYGGGK-OH; disulfide 2-10 (inferred); N-terminus and C-terminus assumed)
binder observed after elution (capillary LC-ESI-MS/MS): observed under all conditions
